Values of other authors as cited in patent publication US9562052B2, “Bicyclicpyridine derivatives” (Hoffmann-La Roche Inc., priority 2012, dated 2017).

For `CCc1c(-c2ccccc2)c(-c2ccccc2)nn1-c1ccccc1-c1cccc(OCC(=O)O)c1` [BMS309403], the atherosclerotic plaques formation (ApoE KO mice) is given as “decrease”, the “body weight and energy consumption” value (ob/ob mice) is given as “no change” and the hepatic steatosis (ob/ob mice) is given as “reduction”. The “glucose uptake in muscle and adipose” value (ob/ob mice; clamp study) was “increased” and the hepatic glucose production (ob/ob mice; clamp study) was “reduction”.
